{
  "source": "patent US7802989B2",
  "about": "“Ozone tray” (CurOzone Ireland Ltd., priority 2000, dated 2010)",
  "test_system": "white spots",
  "test": "Ozone applied through tray over teeth and gums with in situ orthodontic bands; teeth examined for white spots",
  "assay_type": "in vivo",
  "details": "ozone introduced for up to 2 minutes",
  "description": "The method includes disposing the resilient elastomeric tray over the teeth 124 and orthodontic bands 160 applied thereto.\nOzone introduced into the cavity 136 via the port 150 is provided for a period of time to treat the white spots and sterilize the orthodontic bands 160.\nThereafter, the ozone is evacuated from the cavity 136 via the nozzle 128 and the tray 120 is removed from the arched upper or lower teeth 124.\nThe tray is disposed over teeth and gums with in situ orthodontic bands and ozone introduced for up to 2 minutes.",
  "data": [
    {"smiles": "O=[O+][O-]", "note": "[ozone]", "values": [
      {"measurement": "examination of teeth for white spots after ozone treatment", "value": "beneficial results"}
    ]}
  ]
}
